pIC50: −log10 of the molar value.
Key:
[1] = biological target: HDAC9 (Homo sapiens, UniProt Q9UKV0); experiment: HDAC9 continuous fluorescence deacylation assay; assay type: biochemical
[2] = biological target: T1, Sirt5 (Homo sapiens, UniProt Q9NXA8); experiment: Sirt5 in vitro deacylation HPLC assay; assay type: biochemical
T1 sequence (Q9NXA8 37-310): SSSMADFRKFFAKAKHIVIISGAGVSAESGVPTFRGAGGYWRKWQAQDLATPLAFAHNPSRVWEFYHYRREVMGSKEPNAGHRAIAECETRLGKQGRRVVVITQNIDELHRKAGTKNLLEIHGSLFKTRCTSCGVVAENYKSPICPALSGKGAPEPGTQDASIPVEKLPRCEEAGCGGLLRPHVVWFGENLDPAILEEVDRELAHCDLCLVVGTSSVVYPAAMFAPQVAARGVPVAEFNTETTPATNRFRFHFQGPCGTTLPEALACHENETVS

[3] = biological target: T2, HDAC7 (Homo sapiens, UniProt Q8WUI4); experiment: HDAC7 continuous fluorescence deacylation assay; assay type: biochemical
T2 sequence (Q8WUI4 1-952): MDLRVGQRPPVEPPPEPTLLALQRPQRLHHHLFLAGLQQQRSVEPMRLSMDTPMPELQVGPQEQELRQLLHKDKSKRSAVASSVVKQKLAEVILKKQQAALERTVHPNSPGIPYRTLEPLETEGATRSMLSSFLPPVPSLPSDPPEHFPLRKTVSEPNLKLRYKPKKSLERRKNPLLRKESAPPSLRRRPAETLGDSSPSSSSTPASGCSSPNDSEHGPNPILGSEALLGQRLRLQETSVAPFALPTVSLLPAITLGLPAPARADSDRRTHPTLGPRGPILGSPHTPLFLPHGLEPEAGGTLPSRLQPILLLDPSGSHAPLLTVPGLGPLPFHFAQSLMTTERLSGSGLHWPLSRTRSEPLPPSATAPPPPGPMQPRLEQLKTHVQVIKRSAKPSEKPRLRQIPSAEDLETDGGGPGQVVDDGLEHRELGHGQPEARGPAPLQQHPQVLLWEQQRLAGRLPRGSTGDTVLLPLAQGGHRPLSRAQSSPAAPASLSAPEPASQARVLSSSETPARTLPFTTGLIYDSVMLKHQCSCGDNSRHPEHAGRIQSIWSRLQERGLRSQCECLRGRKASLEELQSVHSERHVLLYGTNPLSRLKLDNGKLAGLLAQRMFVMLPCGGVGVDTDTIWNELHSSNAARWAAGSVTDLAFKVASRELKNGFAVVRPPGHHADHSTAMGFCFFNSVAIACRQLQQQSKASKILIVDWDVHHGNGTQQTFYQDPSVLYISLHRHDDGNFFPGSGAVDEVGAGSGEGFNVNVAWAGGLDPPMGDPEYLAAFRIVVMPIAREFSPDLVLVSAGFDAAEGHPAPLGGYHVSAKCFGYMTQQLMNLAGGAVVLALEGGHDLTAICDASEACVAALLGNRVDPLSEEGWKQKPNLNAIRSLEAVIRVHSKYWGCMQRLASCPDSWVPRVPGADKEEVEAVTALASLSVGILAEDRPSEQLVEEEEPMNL

[4] = biological target: T3, HDAC6 (Homo sapiens, UniProt Q9UBN7); experiment: HDAC6 degradation rescue experiment with PROTAC B4 (62) in MCF-7 cells (western blot); assay type: cell-based; design: endogenous in cells; host or cells: MCF-7; details: 20 μM pretreatment 30 min, then 62 (1 or 10 μM) 6 h
T3 sequence (Q9UBN7 1-1215): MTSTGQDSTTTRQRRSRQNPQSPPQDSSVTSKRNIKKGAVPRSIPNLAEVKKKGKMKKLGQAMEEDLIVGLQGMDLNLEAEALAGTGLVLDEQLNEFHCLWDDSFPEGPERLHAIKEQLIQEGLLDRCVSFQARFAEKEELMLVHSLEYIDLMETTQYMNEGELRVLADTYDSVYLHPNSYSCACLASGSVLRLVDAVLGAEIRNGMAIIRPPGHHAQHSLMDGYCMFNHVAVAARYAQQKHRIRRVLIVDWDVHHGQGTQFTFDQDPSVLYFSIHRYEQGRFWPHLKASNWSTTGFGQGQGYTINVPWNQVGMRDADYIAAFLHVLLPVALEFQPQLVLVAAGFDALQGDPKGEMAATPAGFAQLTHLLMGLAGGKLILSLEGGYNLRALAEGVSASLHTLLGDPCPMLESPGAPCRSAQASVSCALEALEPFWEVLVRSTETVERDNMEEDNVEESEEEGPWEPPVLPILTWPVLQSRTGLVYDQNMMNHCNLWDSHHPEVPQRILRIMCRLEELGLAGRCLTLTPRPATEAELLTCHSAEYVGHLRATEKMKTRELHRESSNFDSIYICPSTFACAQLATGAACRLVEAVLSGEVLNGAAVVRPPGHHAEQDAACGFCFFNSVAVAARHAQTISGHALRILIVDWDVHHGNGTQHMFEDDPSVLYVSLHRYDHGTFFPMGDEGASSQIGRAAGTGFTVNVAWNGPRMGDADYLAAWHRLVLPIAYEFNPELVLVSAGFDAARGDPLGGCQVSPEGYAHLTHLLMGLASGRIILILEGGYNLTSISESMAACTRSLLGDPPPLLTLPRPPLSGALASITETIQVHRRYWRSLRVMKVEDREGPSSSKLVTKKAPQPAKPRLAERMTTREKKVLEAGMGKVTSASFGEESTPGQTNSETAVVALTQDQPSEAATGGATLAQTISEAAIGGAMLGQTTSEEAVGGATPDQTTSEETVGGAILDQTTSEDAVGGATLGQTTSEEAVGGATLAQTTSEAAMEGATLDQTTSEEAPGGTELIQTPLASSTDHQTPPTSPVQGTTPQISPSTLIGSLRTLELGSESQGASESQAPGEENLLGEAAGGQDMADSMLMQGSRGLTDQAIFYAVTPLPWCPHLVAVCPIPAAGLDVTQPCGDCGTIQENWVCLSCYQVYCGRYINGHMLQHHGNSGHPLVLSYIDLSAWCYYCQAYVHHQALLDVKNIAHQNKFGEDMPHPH

Sequence of HDAC9 (Q9UKV0 whole entry, species assumed): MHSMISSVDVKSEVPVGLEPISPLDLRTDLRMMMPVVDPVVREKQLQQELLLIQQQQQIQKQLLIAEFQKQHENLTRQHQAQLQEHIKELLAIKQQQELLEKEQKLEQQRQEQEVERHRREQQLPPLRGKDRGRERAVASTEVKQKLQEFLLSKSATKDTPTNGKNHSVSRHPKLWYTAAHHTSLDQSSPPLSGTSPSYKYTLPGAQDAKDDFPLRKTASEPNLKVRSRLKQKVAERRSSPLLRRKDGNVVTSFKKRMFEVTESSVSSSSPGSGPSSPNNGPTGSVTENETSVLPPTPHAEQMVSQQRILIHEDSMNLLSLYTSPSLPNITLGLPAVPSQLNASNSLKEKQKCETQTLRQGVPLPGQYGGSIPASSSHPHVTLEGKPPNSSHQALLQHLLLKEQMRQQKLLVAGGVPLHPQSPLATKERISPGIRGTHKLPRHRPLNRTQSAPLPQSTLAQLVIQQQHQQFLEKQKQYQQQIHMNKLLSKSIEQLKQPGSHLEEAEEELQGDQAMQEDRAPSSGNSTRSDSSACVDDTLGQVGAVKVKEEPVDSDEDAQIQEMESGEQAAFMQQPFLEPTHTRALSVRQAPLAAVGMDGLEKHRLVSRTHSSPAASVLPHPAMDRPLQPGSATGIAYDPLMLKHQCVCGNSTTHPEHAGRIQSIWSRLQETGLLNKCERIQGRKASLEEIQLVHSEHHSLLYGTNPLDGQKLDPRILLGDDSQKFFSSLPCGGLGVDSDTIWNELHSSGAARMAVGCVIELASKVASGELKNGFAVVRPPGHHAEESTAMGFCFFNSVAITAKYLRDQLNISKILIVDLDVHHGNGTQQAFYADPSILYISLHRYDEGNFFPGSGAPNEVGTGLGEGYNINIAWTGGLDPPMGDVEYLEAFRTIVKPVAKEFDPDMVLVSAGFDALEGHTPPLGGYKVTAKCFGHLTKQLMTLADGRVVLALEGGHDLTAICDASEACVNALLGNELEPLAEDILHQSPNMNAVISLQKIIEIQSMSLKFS

Structure (SMILES): CCCCN(Cc1ccc(C(=O)NO)cc1)C(=O)CCCCn1cc(COc2cccc(Cc3cnc(NC(=O)CSc4nc(C)cc(C)n4)s3)c2)nn1 [Compound 33, 4-((N-Butyl-5-(4-((3-((2-(2-((4,6-dimethylpyrimidin-2-yl)thio)acetamido)thiazol-5-yl)methyl)phenoxy)methyl)-1H-1,2,3-triazol-1-yl)pentanamido)methyl)-N-hydroxybenzamide]
- pIC50 [1]: < 4.70
- inhibition at 6 µM ([1]; @ 6 µM, read-out: HDAC9 percentual inhibition): 17%
- inhibition at 20 µM ([1]; @ 20 μM, read-out: HDAC9 percentual inhibition): 37%
- pIC50 [2]: < 3.30
- inhibition at 200 µM ([2]; @ 200 µM, read-out: Sirt5 percentual inhibition): -2%
- inhibition at 500 µM ([2]; @ 500 µM, read-out: Sirt5 percentual inhibition): -1%
- pIC50 [3]: < 5.22
- inhibition at 6 µM ([3]; @ 6 µM, read-out: HDAC7 percentual inhibition): 29%
- inhibition at 20 µM ([3]; @ 20 μM, read-out: HDAC7 percentual inhibition): 57%
- Rescue of HDAC6 from degradation induced by PROTAC 62 [4]: able to rescue HDAC6 from proteasomal degradation induced by 62

Reference: paper PMC10641818, “Development of First-in-Class Dual Sirt2/HDAC6 Inhibitors as Molecular Tools for Dual Inhibition of Tubulin Deacetylation” (Journal of Medicinal Chemistry, 2023)
